Test results reported in ChEMBL document CHEMBL1158819, “Zyzzyanones B-D, dipyrroloquinones from the marine sponge Zyzzya fuliginosa” (J Nat Prod, 2005).
In brackets after ≈: the same amount, converted by molar mass.

Assay: Cytotoxicity against mouse EAC cells
Format: functional, cell-based
Conditions: Ehrlich

Compound: CN(C=O)CCc1c[nH]c2c1C(=O)c1c(-c3ccc(O)cc3)c[nH]c1C2=O [ZYZZYANONE D]
- IC50: 25 µg/mL (≈ 68.8 µM)

Compound: CNCCc1c[nH]c2c1C(=O)c1c(-c3ccc(O)cc3)c[nH]c1C2=O [ZYZZYANONE B]
- IC50: 25 µg/mL (≈ 74.5 µM)

Compound: CN(C=O)CCc1cn(C)c2c1C(=O)c1c(-c3ccc(O)cc3)c[nH]c1C2=O [ZYZZYANONE C]
- IC50: 25 µg/mL (≈ 66.2 µM)
